Measurements: a melting point compilation (Tetko et al.; mined from patent text by program, amines drawn as free bases though some values may be those of a salt)

melting point	Compound
160 to 162 °C	CN1CCCC1=NC(=O)Nc1c(Cl)cc(Cl)cc1Cl
70 °C	CC(N)C(=O)NC(CCC(=O)NC(CC=CCC(=O)O)C(=O)O)C(=O)O (centres undefined)
122 to 124 °C	COc1cc2ccc3c4cc(OC)c(OC)cc4ncc3c2cc1OC
116 to 117 °C	COC(=O)c1ccccc1C(=O)Nc1cc(C(F)(F)F)on1
204 to 206 °C	COc1cc(C)nc(NC(=O)NS(=O)(=O)c2ccsc2S(C)(=O)=O)n1
256 to 258 °C	CSC1=CC2=CN(S)NN2C(C)=N1
240 °C	COc1cc(-c2ccc3ncc(NC(=O)Nc4ccccc4)nc3n2)ccc1O
242 to 245 °C	CCNCC1(C)CN(c2c(F)cc3c(=O)c(C(=O)O)cn4c3c2OC[C@H]4C)C1
194 to 198 °C	Cc1nc(C)c(Cl)c(NCc2ccc(Oc3ccc4ncc([N+](=O)[O-])n4n3)cn2)n1
204 to 208 °C	Cc1cccc(CC2CCN(C(=O)C(=O)Nc3ccc4[nH]c(=O)oc4c3)CC2)c1
192 °C	CN(c1cccc2cc(-c3nccs3)[nH]c12)S(=O)(=O)c1ccsc1CO
137 to 138 °C	c1ccc(CNc2nnc(Cc3ccncc3)c3ccccc23)cc1
236 to 239 °C	COc1cc(Nc2c(C#N)cnc3cc(-c4ccc(CCl)cc4)ccc23)c(Cl)cc1Cl
287 to 291 °C	CC(C)Cn1c(CN)nc2c(N)nc3ccccc3c21
250 °C	COC(=O)Nc1nc2cc(C(c3ccc(F)cc3)n3cncn3)ccc2[nH]1 (centres undefined)
265 to 266 °C	NS(=O)(=O)c1ccc(-n2sc3cc(F)ccc3c2=O)cc1
235 to 236 °C	CC(C(=O)O)=C1c2ccccc2C=Cc2ccccc21
213 to 214 °C	Cc1ccc2oc(=O)c(NC(=O)Nc3ccc(F)cc3F)c(-c3ccccc3C)c2c1
123 to 124 °C	CCOC(=O)C1CCc2ccc(NC(=O)OC(C)(C)C)c(C)c2O1 (centres undefined)
76 °C	C[Si](C)(C)c1ccc(O)cc1
205 to 210 °C	COc1nc2ncnc(NCC=C(C)C)c2[nH]1
95 °C	Cc1ccc(=O)n(-c2cccc(C(F)(F)F)c2)c1
157 to 159 °C	C/C(=N\OCCOc1ccc(C(=O)O)c(O)c1)c1ccc(C(C)(C)C)cc1
253 °C	Cc1cc(CN2CCN(c3ccc(C(=O)NC4CC4)cc3F)CC2)cc2c1OC(C)C(=O)N2 (centres undefined)

melting point	Compound
157 to 161 °C	CCOC(=O)c1cn(C2CSC2)c2nc(Cl)c(F)cc2c1=O
214 °C	O=C1CC(c2csc(-n3ccnc3)n2)=Nc2ccc(-c3ccc(F)cc3)cc2N1
112 to 113 °C	COC(=O)c1c(-c2ccccc2)nn2c1-c1ccccc1CC2
94 to 95 °C	Cc1ccc2[nH]ncc2c1OCc1ccccc1
237 to 238 °C	CCNc1cc(NS(=O)(=O)c2ccc(N)cc2)nc(N(C)C)n1
138 to 140 °C	N#Cc1ccc(CCCN2C(=O)c3ccccc3C2=O)cc1
102 to 103 °C	O=C(O)C(=O)c1ccc(OCCOc2ccccc2)cc1
193 to 195 °C	CC(C)=C1C(=O)N(c2ccc(N)cc2)C(=O)/C1=C(\C)c1cc(-c2ccccc2)sc1C
208 to 210 °C	N#Cc1ccc(NC(=S)N2CCN(c3cnccn3)CC2)cc1
234 to 235 °C	Cc1cc(C)nc(S(=O)(=O)Nc2c(Cl)ccc(C)c2Cl)n1
102 to 104 °C	CC(C)(C1OCCO1)C(O)(COc1ccc(F)cc1)Cn1cncn1 (centres undefined)
67 to 68 °C	O[C@H](CCc1cccnc1)COc1ccc(C#Cc2ccccc2)cc1
150 to 151 °C	Cc1c(CC(=O)O)c2cc(OCc3csc(-c4ccccc4)n3)ccc2n1Cc1ccc(Cl)cc1
149 to 152 °C	CC(C)(C)c1cccc2nc(C(F)(F)F)[nH]c12
105 to 107 °C	CCCCc1nn(-c2cccc(NC(=O)CC)c2)c(=O)n1Cc1ccc(-c2ccccc2S(=O)(=O)NC(=O)c2ccccc2Cl)cc1
191 to 192 °C	C=CCOC(=O)c1ccc(NC(=O)c2ccc(OC)c(C34CC5CC(CC(C5)C3)C4)c2)cc1
108 to 110 °C	COC(=O)c1cc(O)cc(-c2ccccc2)c1
125 to 128 °C	COc1ccc(COc2ccc3cc(C(C)C(=O)O)ccc3c2)cc1OC1CC2CCC1C2 (centres undefined)
147 to 149 °C	NCC1(O)c2ccccc2CCc2ccccc21
141 to 143 °C	CCS(=O)(=O)N[C@H](C(=O)NCCc1ccc(OC/C=C\c2ccc(Cl)cc2)c(OC)c1)C(C)C
96 °C	N#Cc1cc([N+](=O)[O-])ccc1NC(=O)C(F)(OC(F)(F)C(F)(F)C(F)(F)F)C(F)(F)F (centres undefined)
147 to 148 °C	Fc1ccc2[nH]cc(CCCN3CCN(c4cccc(Cl)c4Cl)CC3)c2c1
65 to 66 °C	CCOC(=O)/C(=C\Nc1cc(OC)ccc1OC)c1ccc(OC)cc1
146 °C	COc1ccc(C#CC(O)c2cccc(CN(O)C(N)=O)c2)cc1OC (centres undefined)

melting point	Compound
121 to 122 °C	CC(=O)N[C@@H](C)COC1CCN(c2nc3ccc(OCC4CC4)cc3s2)CC1
226 to 228 °C	CCN1C(=O)C(C)(C)CCc2c1ccc(Nc1ncc(Cl)c(Nc3ccccc3C(=O)NC)n1)c2OC
113 °C	CCCCS(=O)(=O)Nc1ccc(OCc2ccc3ccccc3n2)cc1
222 to 225 °C	CN(C)c1ccc(C2(c3ccc(N(C)C)cc3N(C)C)OC(=O)c3ccc(N(C)C)cc32)cc1 (centres undefined)
306 to 307 °C	CSc1nc(N)nc2c3nc(C)cc(C)c3nn12
135 to 136 °C	CCON=C(CC)C1=C(O)CC(c2ccc(NC(C)=O)cc2)CC1=O (centres undefined)
98 to 99 °C	CC(C(=O)NC(C)(C#N)C(C)C)c1ccc(Br)cc1 (centres undefined)
112 to 114 °C	COc1cc(OC)c2c(=O)[nH]c(-c3cc(C)c(OCCN4CC(NC(C)=O)C4)c(C)c3)nc2c1
196 to 198 °C	CCc1nc(-c2ncn3c4ccc(Cl)cc4c(=O)n(C)c23)no1
118 to 120 °C	COc1ccc(F)c2c1C(=O)CC2
259 to 260 °C	CCC(C)c1ccc(-n2c(-c3cc(C)c(OCCO)c(C)c3)nc3ccc(S(C)(=O)=O)cc3c2=O)cc1 (centres undefined)
117 to 119 °C	C(=Cc1cccnc1)c1ccc(C2OCCO2)cc1
157 to 159 °C	O=C(NCC(=O)c1cccs1)c1ccc(Cl)cc1
> 300 °C	N#Cc1cnc2c(c1Cl)C=C1N=CN=C1C2
85 to 86 °C	CC(Oc1ncnc2ccccc12)c1ccc(C(C)(C)C)cc1 (centres undefined)
165 °C	O=C(c1ccc(F)cc1)c1ccc2n1CCC2C(=O)O (centres undefined)
177 °C	CCOc1ccc(C=Cc2ccc(OC(F)F)cc2)cc1
104 to 105 °C	CCc1cc(C=O)ccc1N=C1SCC2(CCCC2)N1C1CCCC1
77 to 78 °C	CCOC(=O)Cc1cccc(C(=O)c2ccccc2)c1N
260 to 261 °C	CC1=Nc2ccccc2S(=O)(=O)N1
120 to 121 °C	Fc1cccc(Cl)c1-c1cc(Cl)n(-c2ccc(COc3ncc(C(F)(F)F)cc3Cl)cc2)n1
101 to 103 °C	CN(C)CC(C)(C)C(NC(=O)c1ccc(Cl)cc1)NC(=NC#N)Nc1cccnc1 (centres undefined)
142 °C	CC(C)C1(Cl)Cc2cc(OCC(=O)O)cc(Cl)c2C1=O (centres undefined)
191 to 192 °C	N[C@H](CCC(=O)N1[C@H](C(=O)O)C[C@@H]2CCCC[C@@H]21)C(=O)O

melting point	Compound
185 to 188 °C	O=C(NC(=O)c1c(F)cccc1F)Nc1ccc(OC(c2ccc(Cl)cc2)C2CC2)cc1 (centres undefined)
133 to 134 °C	COc1cc(/C=C/C=C/C=O)ccc1OCc1nc(-c2ccccc2)oc1C
218 °C	CCOC(=O)C1=C(O)c2cc(OC)c(OC)cc2NC(=O)C1
192 °C	CCN(CC)CCc1c(C)[nH]c(C=C2C(=O)[NH+]([O-])N=C2c2cnccn2)c1C (centres undefined)
91 to 93 °C	O=[N+]([O-])c1ccccc1Sc1ccc(Cl)cc1
266 to 267 °C	Cc1nc(-c2c(Cl)cc(C(F)(F)F)cc2Cl)[nH]c1S(N)(=O)=O
136 to 137 °C	Cc1ccc(C2COc3c(ccc(O)c3C)C2)cc1 (centres undefined)
241 to 243 °C	NC(Cc1cnc2ccccc2c1)C(=O)O (centres undefined)
265 °C	O=C(c1ccn2c1CSC2c1cccnc1)c1c[nH]c2cc(Br)ccc12 (centres undefined)
97 to 100 °C	CN1CC(CCCl)Sc2ncccc2C1=O (centres undefined)
167 to 168 °C	COc1ccc(-c2cccc(C(=O)NN)c2)cc1OC1CCCC1
322 to 323 °C	Cn1cc2c(=O)n(-c3ccc(Cl)cc3)nc-2c2ccccc21
153 to 155 °C	CN(C)C1CCCC(C(=O)N2CCC(c3[nH]nc4c3C(=O)c3c(NC(=O)NN5CCOCC5)cccc3-4)CC2)C1 (centres undefined)
> 300 °C	Cc1ccc(C2C3=C(CC(C)(C)CC3=O)NC3=C2C(=O)CC(C)(C)C3)cc1[N+](=O)[O-]
151 to 152 °C	CCOC(=O)c1c(S(=O)Cc2nccn2C)nc2cc(OC)c(OC)cc2c1-c1ccc(OC)c(OC)c1 (centres undefined)
111 to 124 °C	O=C(O)c1ccc(CNC(=O)C2Cc3ccccc3N2S(=O)(=O)c2ccc(-c3ccc(F)cc3Cl)cc2)cc1 (centres undefined)
58 to 59 °C	CCOCCCC(NC=O)C1(c2ccc(Cl)cc2)CCC1 (centres undefined)
234 to 235 °C	O=C(NCc1ccccn1)Nc1cc(N2CCCC2=O)ccn1
150 °C	Cn1nc(Br)c([N+](=O)[O-])c1NCCO
138 to 141 °C	CC(C)(C)OC(=O)NCC(=O)N[C@@H](Cc1ccccc1)C(=O)O
112 to 113 °C	O=C(c1ccccc1)c1ccc(-c2nc(COc3ccc(CCCn4ccnc4)cc3)co2)cc1
279 to 281 °C	COc1ccccc1C(=O)Nc1ccc(CN2C(=O)[C@H]3CCC[C@H]3N(C(=O)CN3C(=O)c4ccccc4C3=O)c3ccccc32)cc1 (relative stereo)

Compound	melting point
COCCOc1ccc(/C=C/C2(O)CN3CCC2CC3)cc1 (centres undefined)	164 to 166 °C
N#CC1CN1C(=O)NC(=O)c1ccc2c(c1)CCCC2 (centres undefined)	166 to 168 °C
CC12CCC3C(CCC4C(=O)CCCC43C)C1CCC2OC1CCCCO1 (centres undefined)	123 to 126 °C
N#Cc1nn(-c2c(Cl)cc(C(F)(F)F)cc2Cl)cc1-c1cc(Br)no1	145 °C
CN1C(=O)CN=C(c2ccccc2F)c2cc(NC(=O)N3CC3)ccc21	186 to 190 °C
